The assay concerns mitochondria. The experiment in a line: Peptide-mediated delivery of cargo into cells/mitochondria (fluorescence microscopy). It counts as cell-based. On the procedure: Cells, indicated above, were grown in 8-well culture slides. Peptide/protein complexes were formed in a volume of 100 μl in OptiMEM and incubated for 30 min at 37° C. Approximately 10,000 Cells grown to 75% confluence were overlaid with these preformed complexes. After 30 min of incubation at 37° C., 500 μl of fresh DMEM supplemented with 10% FBS was added to the cells and incubated for an additional 30 min. Cells were then washed with PBS followed by fixing with 4% paraformaldehyde in PBS. Cells were then mounted with flourescent-FragEL Mounting media (Calbiochem) containing DAPI nuclear stain before microscopic analysis. See, e.g., FIGS. 1, 2, 3, and 11.

For “AAVALLPAVLLALLAPMSVLTPLLLRGLTGSARRLPVPRAKIHSL (AAVALLPAVLLALLAPMSVLTPLLLRGLTGSARRLPVPRAKIHSL) [SEQ ID NO:19]”, the “delivery of Alexa-IgG into mitochondria” value (FIG. 1, 10 picomol Alexa-tagged IgG, SEQ ID NO:19 from 0 to 2000 pm, orange = red plus green stain) is “Alexa-IgG complex has entered the mitochondria”. The “delivery of FITC-tagged oligonucleotide” value (FIG. 2, green = mitochondria stained by FITC complex, blue = DAPI nucleus) is recorded as “demonstrates delivery of FITC-tagged oligonucleotide”. For the same substance, under “FIG. 3, DNA stain, small blue dots = mitochondria”, the “delivery of double-stranded circular plasmid (~5.5 kb) into the mitochondria” value is reported as “delivery of a double-stranded circular plasmid (˜5.5 kb) into the mitochondria”.

These data come from patent US20100119528A1, “Transport of Biologically Active Molecules into a Cell, Mitochondrion, or Nucleus” (priority 2008, published 2010).
